The source of these data is PMC9881724, “Rational design of potent ultrashort antimicrobial peptides with programmable assembly into nanostructured hydrogels” (Frontiers in Chemistry, 2023).

Holding throughout (format): cell-based
The subject of test [1] is S. aureus ATCC BAA-1756 (methicillin resistant). Particulars: ATCC BAA-1756, 1 h. An excerpt:
(§1) Indolicidin (sequence: ILPWKWPWWPWRR-NH2, molecular weight: 1,906.3 g/mol) and FMOC-WWRR-NH2 (molecular weight: 924.1) were obtained from ChemPep (USA) as lyophilized powder and acetate salts with a purity >95%. Ethanol and Congo red were purchased from Sigma-Aldrich (Australia). Sodium chloride was purchased from Alfa Aesar (United Kingdom). The negative staining agent phosphotungstic acid was purchased from Proscitech (Australia). A Milipore filter system was utilized to obtain Milli-Q water. BD Difco Mueller Hinton Broth (MHB) and Sabouraud broth (SB) were purchased from Cell biosciences (Australia). Strains: E. coli NCTC 10418, P. aeruginosa ATCC 9721, E. faecalis ATCC 19433, S. aureus ATCC 25923, S. aureus ATCC BAA-1756 (methicillin resistant), Streptococcus pneumoniae ATCC 49619, Candida albicans ATCC 10231 and Candida auris DSM 21092 (Fluconazole resistant) were provided by the RMIT microbial culture collection. Bacterial strains were stored in 50% glycerol at −20 and −80°C.
(§2) Minimal inhibitory concentration (MIC) assays were performed following a standard broth dilution procedure ([Wiegand et al., 2008]) in which bacteria were grown in MHB and fungal in SB overnight. The overnight bacterial suspension was adjusted to 10^6 CFU/ml in broth according to MacFarlane standard. Bacterial solutions were mixed in 96-well plates with the peptide solution to reach final concentrations of peptides ranging from 1,082 to 2 μM, including inhibition control (Indolicidin), growth control, and sterility control. Within each MIC experiment, each peptide was tested in triplicate across this concentration range and repeated on 3 independent days. Media and glassware were sterilized at 120°C for 1 h with an autoclave prior to all bioassays.

The test system of test [2] is Streptococcus pneumoniae ATCC 49619. Particulars: ATCC 49619, 1 h.
Text: as §1, §2

For the next test, the system named is E. coli NCTC 10418. Particulars: NCTC 10418, 1 h.
Text: as §1, §2

Test [3] deals with Candida albicans ATCC 10231. As to conditions: ATCC 10231, 1 h.
Text: as §1, §2

In another test the test system is P. aeruginosa ATCC 9721. As to conditions: ATCC 9721, 1 h.
Text: as §1, §2

Test [4] deals with Candida auris DSM 21092 (Fluconazole resistant). As to conditions: DSM 21092, 1 h.
Text: as §1, §2

A further test relates to S. aureus ATCC 25923. Particulars: ATCC 25923, 1 h.
Text: as §1, §2

In another test the test system is E. faecalis ATCC 19433. As to conditions: ATCC 19433, 1 h.
Text: as §1, §2

Values after ≈ are worked out from the molar mass of the structure shown. Residues, ends and D or L forms follow the SMILES beside them. *: point of attachment. Fmoc = O=C(OCC1c2ccccc2-c2ccccc21)*

`N=C(N)NCCC[C@H](NC(=O)[C@H](CCCNC(=N)N)NC(=O)[C@H](Cc1c[nH]c2ccccc12)NC(=O)[C@@H]1CCCN1C(=O)[C@H](Cc1c[nH]c2ccccc12)NC(=O)OCC1c2ccccc2-c2ccccc21)C(N)=O` [P-Priscilicidin, Fmoc-WPWRR-NH2] (Fmoc-WPWRR-NH2): in test [1], the “MIC S. aureus Methicillin resistant” value was 61 µM (≈ 62.3 µg/mL). The “MIC S. pneumoniae” value in test [2] stood at 31 µM (≈ 31.7 µg/mL). For the same compound, the “MIC E. coli” value with E. coli NCTC 10418 was 122 µM (≈ 125 µg/mL). Besides, the “MIC C. albicans” value in test [3] amounted to 15 µM (≈ 15.3 µg/mL). In addition, the “MIC P. aeruginosa” value against P. aeruginosa ATCC 9721 turned out to be 61 µM (≈ 62.3 µg/mL). Moreover, the “MIC C. auris Fluconazole resistant” value in test [4] was determined as 31 µM (≈ 31.7 µg/mL). The “MIC S. aureus” value against S. aureus ATCC 25923 came to 31 µM (≈ 31.7 µg/mL). Besides, the “MIC E. faecalis” value with E. faecalis ATCC 19433 came to 61 µM (≈ 62.3 µg/mL).
